Assay results as given in patent publication US20020172990A1, “Cyclin dependent kinase 5 phosphorylation of disabled 1 protein” (priority 2002, published 2002).

Test system: Dab1 phosphorylation in embryonic neurons
Assay: Reelin stimulation of embryonic neurons, Dab1 immunoprecipitation and Western blot
Assay type: cell-based, mouse
Experimental: Stimulation of embryonic neurons with purified Reelin has been described previously (Keshvara et al., J Biol Chem 276:16008-16014, 2001). Briefly, neurons obtained by trituration of embryonic brains were treated either with purified recombinant Reelin or with a control supernatant for 15 minutes at 37° C. After incubation neurons were either snap frozen or lysed immediately. Reelin-treated neuronal pellets were lysed in cell lysis buffer (25 mM Tris-HCl, 1% Nonidet P-40, 150 mM NaCl, 5 mM EDTA, 1 mM sodium orthovanadate, 20 mM sodium fluoride, and 20 μg/ml each of aprotinin and leupeptin). Whole brains were also homogenized in this lysis buffer. Cell lysates as well as brain homogenates were clarified by centrifugation at 10,000× g at 4° C. for 20 min.
Cell or brain lysates were incubated with anti-Cdk5 or anti-Dab1 antibodies at 4° C. for 2 hr. Immune complexes were collected with protein G-agarose beads (Pierce) and washed three times with cell lysis buffer. Immunoprecipitates were boiled in SDS sample buffer, separated by SDS-PAGE, and blotted to nitrocellulose membranes. Nitrocellulose membranes were blocked with 5% non-fat dry milk in TBST (50 mM Tris, pH 7.4, 150 mM NaCl, 1% Tween 20) for 1 hr at room temperature. The following antibodies were used for various immunoblots: anti-PSer491 (1:1000), anti-Cdk5 (1:2000), anti-PY198 (1:100), 4G10 (1:2000) (Upstate Biotechnology, Lake Placid, N.Y.), and anti-Dab1 (CT38, 1:5000). All dilutions were made in blocking solution, and incubations were carried out at room temperature for one hour. The membranes were washed in TBST and incubated with horseradish peroxidase-conjugated secondary antibody (1:10,000) for 1 hr. Detection was carried out using Super Signal West Dura Extended Duration Substrate (Pierce).
Since the accumulation of hypophosphorylated Dab1 in Cdk5^−/− neurons implies that Reelin signaling is defective, we sought to determine whether the defect in Reelin signaling is intrinsic to Cdk5-deficient neurons or whether it arises as an indirect consequence of the ectopic location of these neurons. […]

Reelin: Large secreted glycoprotein; purified recombinant Reelin used to stimulate embryonic neurons
Tyrosine phosphorylation of Dab1 (neurons from E16.5 Cdk5-/- embryos, Reelin-enriched DMEM vs DMEM alone, 4G10 anti-phosphotyrosine blot): sharp increase in tyrosine phosphorylation of Dab1
Tyrosine phosphorylation of Dab1 (neurons from E16.5 reeler brains, exogenous Reelin 15 minutes at 37° C.): sharp increase in tyrosine phosphorylation of Dab1
Serine 491 phosphorylation of Dab1 (neurons from E16.5 reeler brains, exogenous Reelin 15 minutes at 37° C., anti-PSer491 blot): did not cause any noticeable change
